In US20250186405A1, “Compound For Use In Treating Narcolepsy” (Alkermes, Inc., priority 2023, published 2025):

System: healthy adult subjects
Experiment: Part 2 MAD: treatment-emergent adverse events, once daily for 10 days (N = 6 per dose)
Format: in vivo, human
Source text: Part 2 of the study is a MAD evaluation in healthy subjects consisting of 4 cohorts: Cohorts 1-4 received powder-in-capsule or matching placebo. Dose levels were as follows:
Safety assessments were made. A plasma PK sample was collected pre-dose on Day 8.

CS(=O)(=O)N[C@H]1CCCN2C(=O)COc3ccccc3C3CCC(CC3)OCC12 (stereo partly drawn) [Compound A, N-[(4S,4aR,7α,10α)-1,2,3,4,4a,5,7,8,9,10,16,17-dodecahydro-17-oxo-7,10-ethanopyrido[1,2-d][1,7,4]benzodioxaazacyclotridecin-4-yl]methanesulfonamide]
1 n: TEAE Abnormal dreams (3 mg) | TEAE Cough (3 mg) | TEAE Abdominal pain (8 mg) | TEAE Abdominal pain lower (8 mg) | TEAE Depressed mood (8 mg) | TEAE Hypervigilance (8 mg) | TEAE Nocturia (8 mg) | TEAE Photophobia (8 mg) | TEAE Vomiting (8 mg) | TEAE by Highest Severity: Moderate (8 mg) | TEAE Headache (15 mg) | TEAE Insomnia (15 mg) | TEAE Pollakiuria (15 mg) | AE Leading to Study Drug Discontinuation (25 mg) | TEAE Back pain (25 mg) | TEAE Balance disorder (25 mg) | TEAE Blood pressure systolic increased (25 mg) | TEAE Euphoric mood (25 mg) | TEAE Feeling of relaxation (25 mg) | TEAE Salivary hypersecretion (25 mg) | TEAE Visual impairment (25 mg) | TEAE by Highest Severity: Moderate (25 mg) | AE Leading to Study Drug Discontinuation (Total (N = 24)) | TEAE Abdominal pain (Total (N = 24)) | TEAE Abdominal pain lower (Total (N = 24)) | TEAE Abnormal dreams (Total (N = 24)) | TEAE Back pain (Total (N = 24)) | TEAE Balance disorder (Total (N = 24)) | TEAE Blood pressure systolic increased (Total (N = 24)) | TEAE Cough (Total (N = 24)) | TEAE Depressed mood (Total (N = 24)) | TEAE Euphoric mood (Total (N = 24)) | TEAE Feeling of relaxation (Total (N = 24)) | TEAE Headache (Total (N = 24)) | TEAE Hypervigilance (Total (N = 24)) | TEAE Nocturia (Total (N = 24)) | TEAE Photophobia (Total (N = 24)) | TEAE Salivary hypersecretion (Total (N = 24)) | TEAE Vomiting (Total (N = 24))
well tolerated: Tolerability (multiple doses 3 to 25 mg once daily for 10 days)
10 n: TEAE by Highest Relationship: Related (Total (N = 24))
4 n: TEAE by Highest Severity: Mild (8 mg) | TEAE by Highest Severity: Mild (25 mg)
13 n: TEAE by Highest Severity: Mild (Total (N = 24))
3 n: TEAE by Highest Relationship: Not Related (8 mg) | Any TEAE (15 mg) | TEAE Dizziness (15 mg) | TEAE by Highest Relationship: Related (15 mg) | TEAE by Highest Severity: Mild (15 mg) | TEAE Dizziness (25 mg) | TEAE Insomnia (25 mg) | TEAE Pollakiuria (Total (N = 24)) | TEAE Visual impairment (Total (N = 24))
6 n: TEAE Dizziness (Total (N = 24)) | TEAE Insomnia (Total (N = 24))
0 n: AE Leading to Study Drug Discontinuation (3 mg) | Any SAEs (3 mg) | Death (3 mg) | TEAE Abdominal pain (3 mg) | TEAE Abdominal pain lower (3 mg) | TEAE Back pain (3 mg) | TEAE Balance disorder (3 mg) | TEAE Blood pressure systolic increased (3 mg) | TEAE Depressed mood (3 mg) | TEAE Diarrhoea (3 mg) | TEAE Dizziness (3 mg) | TEAE Euphoric mood (3 mg) | TEAE Feeling of relaxation (3 mg) | TEAE Headache (3 mg) | TEAE Hypervigilance (3 mg) | TEAE Insomnia (3 mg) | TEAE Nocturia (3 mg) | TEAE Photophobia (3 mg) | TEAE Pollakiuria (3 mg) | TEAE Salivary hypersecretion (3 mg) | TEAE Visual impairment (3 mg) | TEAE Vomiting (3 mg) | TEAE by Highest Relationship: Related (3 mg) | TEAE by Highest Severity: Moderate (3 mg) | TEAE by Highest Severity: Severe (3 mg) | AE Leading to Study Drug Discontinuation (8 mg) | Any SAEs (8 mg) | Death (8 mg) | TEAE Abnormal dreams (8 mg) | TEAE Back pain (8 mg) | TEAE Balance disorder (8 mg) | TEAE Blood pressure systolic increased (8 mg) | TEAE Cough (8 mg) | TEAE Dizziness (8 mg) | TEAE Euphoric mood (8 mg) | TEAE Feeling of relaxation (8 mg) | TEAE Headache (8 mg) | TEAE Pollakiuria (8 mg) | TEAE Salivary hypersecretion (8 mg) | TEAE Visual impairment (8 mg) | TEAE by Highest Severity: Severe (8 mg) | AE Leading to Study Drug Discontinuation (15 mg) | Any SAEs (15 mg) | Death (15 mg) | TEAE Abdominal pain (15 mg) | TEAE Abdominal pain lower (15 mg) | TEAE Abnormal dreams (15 mg) | TEAE Back pain (15 mg) | TEAE Balance disorder (15 mg) | TEAE Blood pressure systolic increased (15 mg) | TEAE Cough (15 mg) | TEAE Depressed mood (15 mg) | TEAE Diarrhoea (15 mg) | TEAE Euphoric mood (15 mg) | TEAE Feeling of relaxation (15 mg) | TEAE Hypervigilance (15 mg) | TEAE Nocturia (15 mg) | TEAE Photophobia (15 mg) | TEAE Salivary hypersecretion (15 mg) | TEAE Vomiting (15 mg) | TEAE by Highest Relationship: Not Related (15 mg) | TEAE by Highest Severity: Moderate (15 mg) | TEAE by Highest Severity: Severe (15 mg) | Any SAEs (25 mg) | Death (25 mg) | TEAE Abdominal pain (25 mg) | TEAE Abdominal pain lower (25 mg) | TEAE Abnormal dreams (25 mg) | TEAE Cough (25 mg) | TEAE Depressed mood (25 mg) | TEAE Diarrhoea (25 mg) | TEAE Headache (25 mg) | TEAE Hypervigilance (25 mg) | TEAE Nocturia (25 mg) | TEAE Photophobia (25 mg) | TEAE Vomiting (25 mg) | TEAE by Highest Relationship: Not Related (25 mg) | TEAE by Highest Severity: Severe (25 mg) | Any SAEs (Total (N = 24)) | Death (Total (N = 24)) | TEAE by Highest Severity: Severe (Total (N = 24))
2 n: Any TEAE (3 mg) | TEAE by Highest Relationship: Not Related (3 mg) | TEAE by Highest Severity: Mild (3 mg) | TEAE Diarrhoea (8 mg) | TEAE Insomnia (8 mg) | TEAE by Highest Relationship: Related (8 mg) | TEAE Visual impairment (15 mg) | TEAE Pollakiuria (25 mg) | TEAE Diarrhoea (Total (N = 24)) | TEAE by Highest Severity: Moderate (Total (N = 24))
15 n: Any TEAE (Total (N = 24))
5 n: Any TEAE (8 mg) | Any TEAE (25 mg) | TEAE by Highest Relationship: Related (25 mg) | TEAE by Highest Relationship: Not Related (Total (N = 24))
